Laboratory results from publication PMC4528135, “Kinetic Investigations of the Role of Factor Inhibiting Hypoxia-inducible Factor (FIH) as an Oxygen Sensor” (The Journal of Biological Chemistry, 2015).

Legend:
Assay type in all cases: biochemical
[1] = biological target: T1, PHD2 (catalytic domain, residues 181–426) (Homo sapiens, UniProt Q9GZT9); assay: Steady-state kinetics of PHD2-catalyzed HIF-α CODD/NODD hydroxylation (MALDI-TOF-MS); conditions: PHD2, 4 μM PHD2, 50 μM Fe(II), 4 mM L-ascorbate, 50 mM HEPES pH 7.5, 37 °C
T1 construct: The catalytic domain of PHD2 (residues 181–426) was purified as described; made in house
T1 sequence (Q9GZT9 181-426): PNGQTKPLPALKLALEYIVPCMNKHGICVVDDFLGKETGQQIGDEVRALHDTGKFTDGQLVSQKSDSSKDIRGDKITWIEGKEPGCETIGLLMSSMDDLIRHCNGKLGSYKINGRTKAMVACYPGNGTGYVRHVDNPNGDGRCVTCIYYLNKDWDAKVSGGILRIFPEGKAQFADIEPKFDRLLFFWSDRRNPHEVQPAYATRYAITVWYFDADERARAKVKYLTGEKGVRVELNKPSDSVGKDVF
Description: (§1) Enzymatic assays were conducted as described ([46], [47]). Unless otherwise stated, the assay mixture typically contained 5 μM FIH, 500 μM substrate, 500 μM 2OG, 1 mM L-ascorbate, and 50 μM Fe(NH4)2(SO4)2 or 4 μM PHD2, 100 μM substrate, 300 μM 2OG, 4 mM L-ascorbate, and 50 μM Fe(NH4)2(SO4)2. For HIF-1α CODD19-mer, the background levels of methionine oxidation resulting from assay conditions were subtracted based on non-enzymatic controls ([48]).
The O2 dependence of FIH-catalyzed reactions was determined by conducting enzymatic assays in an “In vivo 500 Hypoxia Workstation” (Ruskinn) using buffers pre-equilibrated under different pO2 values for 24 h. The O2 dependence of PHD2-catalyzed reactions was determined by conducting enzymatic assays in sealed glass vials with variable N2/O2 contents ([42]). Reactions were stopped by spotting samples onto a matrix-assisted laser desorption/ionization-time of flight mass spectrometry (MALDI-TOF-MS) target plate and immediately mixing with α-cyano-4-hydroxycinnamic acid matrix. Hydroxylation levels were assessed by MALDI-TOF-MS as described ([46]).

PHD2 [2] = biological target: T2, PHD2 (Homo sapiens, UniProt Q9GZT9); assay: Time course of PHD2-catalyzed peptide hydroxylation; conditions: 4 μM PHD2, 100 μM peptide, 50 μM Fe(II), 300 μM 2OG, 1 mM L-ascorbate, 50 mM HEPES pH 7.5, 37 °C, atmospheric O2; MALDI-TOF-MS; triplicate assays
T2 construct: The catalytic domain of PHD2 (residues 181–426) was purified as described; made in house
T2 sequence (Q9GZT9 181-426): as above
Description: as §1
FIGURE 3. PHD2- and FIH-catalyzed hydroxylation of HIF-1/2α peptide substrates. A, time course of HIF-1/2α CODD19-mer peptide hydroxylation; B, time course of HIF-1/2α NODD19-mer peptide hydroxylation. Conditions were as follows: 4 μM PHD2, 100 μM peptide, 50 μM Fe(II), 300 μM 2OG, 1 mM L-ascorbate in HEPES 50 mM (pH 7.5) were incubated at 37 °C at atmospheric O2. C, time course of HIF-1α CAD 19- and 35-mer peptide hydroxylation. D, time course of HIF-2α CAD 19- and 35-mer peptide hydroxylation. Conditions were as follows: 5 μM FIH, 500 μM peptide, 50 μM Fe(II), 500 μM 2OG, 1 mM L-ascorbate in HEPES 50 mM (pH 7.5) were incubated at 37 °C at atmospheric O2. The different hydroxylation levels were analyzed by MALDI-TOF-MS. Error bars, S.D. of triplicate assays.

PHD2 [3] = biological target: T2, PHD2; assay: Rapid quench-flow, PHD2 pre-steady-state product and succinate formation; conditions: same mixture as stopped-flow, O2-saturated buffer 1:1, 5 °C, quenched with 1% CF3CO2H
Description: Rapid quench-flow experiments were performed using the same conditions and preparation of the assay mixture as used in stopped-flow experiments. Rapid quench-flow equipment (TgK Scientific Ltd.) in an anaerobic glove box was used for the experiments. Samples were quenched with 1% CF3CO2H and analyzed using MALDI-TOF-MS (peptide hydroxylation) as described above or liquid chromatography-mass spectrometry (LC-MS, for succinate production). For LC-MS, chromatographic separation was performed at 50 °C using a Waters ACQUITY BEH Amide 1.7-μm, 2.1 × 100-mm column on a Waters ACQUITY^TM ultraperformance liquid chromatography system (Waters Corp., Milford, MA). The following eluents were used: mobile phase A: 10% H2O, 90% acetonitrile (v/v), 10 mM ammonium formate; mobile phase B: 50% H2O, 50% acetonitrile (v/v), 10 mM ammonium formate. The elution gradient was 0–7.0 min linear from 10 to 30% B, and 7.0–9.0 min at 10% B for re-equilibration of the column. A constant flow rate of 0.4 ml/min was used. Analytes were detected in negative ionization mode using single reaction monitoring on a Quattro triple quadrupole mass spectrometer (Waters) with a cone voltage of 15 V and a capillary voltage of 3.0 kV. The desolvation temperature was set to 250 °C, and the source temperature was set to 120 °C.
To investigate correlation of the spectroscopic observations with rates of product accumulation, equivalent reactions were analyzed by rapid quench-flow methodology. Anerobically prepared PHD2·Fe(II)·2OG·peptide substrate complexes were mixed with O2-saturated buffer in a 1:1 ratio; reactions were quenched at defined time points with 1% aqueous CF3CO2H. The level of peptide hydroxylation was assessed by MALDI-TOF-MS ([42]), and succinate accumulation was analyzed by LC-MS. To obtain rate constants for product accumulation, the results were fitted with a single exponential function (Fig. 5E and Table 3).

PHD2 [4] = biological target: T2, PHD2; assay: Stopped-flow UV-visible spectroscopy, PHD2·Fe(II)·2OG·substrate + O2; conditions: anaerobic 0.8 mM PHD2, 1 mM peptide, 5 mM 2OG, 50 mM HEPES pH 7.5, mixed 1:1 with O2-saturated buffer at 5 °C, double exponential fit
Description: Stopped-flow UV-visible spectroscopy experiments were performed as described previously ([32], [42]). […] The reaction was observed over 1000 s using a photodiode array detector, and kinetic traces were analyzed using Origin version 8.51 software. Data were fitted with a double exponential function (y = A1 × exp(−kriset) + A2 × exp(−kfallt) + y0). The A1, A2, and y0 parameters were restricted with upper limits to match the observed amplitude/offset changes.
Previously reported pre-steady-state kinetic studies on PHD2 focused on its reaction with CODD HIF-1α 19-mer peptide ([38], [42]); there is no reported information on the rates of PHD2 reaction with O2 in the presence of NODD HIF-1α or HIF-2α substrates. To ascertain whether a slow reaction with O2 under pre-steady-state conditions is common to PHD2-catalyzed hydroxylation of both CODD and NODD, we investigated the reaction of PHD2 with NODD substrates in comparison with CODD for both HIF-1α and HIF-2α. Pre-steady-state reactions of PHD2 were initiated by rapid mixing of anaerobic PHD2·Fe(II)·2OG·HIF-α complexes with O2-saturated buffer at 5 °C. Reactions were initially observed using a photodiode array detector, and difference spectra (in comparison with the reaction with O2-free buffer) were subsequently analyzed.
FIGURE 5. Pre-steady-state kinetics of PHD2-catalyzed HIF-1/2α hydroxylation. […] B, stopped-flow kinetic traces at 520 nm showing absorbance changes in control experiments: Fe(II) only, mix of Fe(II) and 2OG, reaction of PHD2·Fe(II)·2OG complex with O2 in the absence of CODD; reaction of PHD2·Fe(II)·N-oxalylglycine (NOG)·CODD complex with O2. N-Oxalylglycine is an inhibitor of 2OG oxygenases. […] The kinetic traces represent the average of triplicate assays. E, HIF-1/2α peptide hydroxylation, as determined by MALDI-TOF-MS. Reactions were quenched with 1% CF3CO2H at defined time points.

DLDLEMLAPYIPMDDDFQL [HIF-1α CODD, 19-mer fragment (556–574) of the HIF-1α C-terminal oxygen-dependent degradation domain, PHD2 substrate]
kcat^app [1]: 0.060 ± 0.006 s⁻¹ | substrate hydroxylation after 15 min (PHD2 [2]): 70% | Rapid quench-flow kproduct (PHD2 [3]; peptide hydroxylation by MALDI-TOF-MS, single exponential fit): 0.0155 ± 0.0012 s⁻¹ | Rapid quench-flow ksuccinate (PHD2 [3]; succinate by LC-MS): 0.0130 ± 0.0020 s⁻¹ | Stopped-flow, 520 nm (PHD2) krise phase (PHD2 [4]): 0.015 ± 0.005 s⁻¹ | Stopped-flow, 520 nm (PHD2) kfall phase (PHD2 [4]; traces average of triplicate): 0.040 ± 0.007 s⁻¹
